In BindingDB's records for doi:10.1016/j.bmcl.2009.09.017 (Pfizer, 2009):

Assay: Antagonist activity at P2Y12 receptor in human platelet rich plasma assessed as inhibition of ADP-induced platelet aggregation by light transmission aggregometry

| Compound | IC50 [nM] |
| --- | --- |
| CCCCOC(=O)N1CCN(C(=O)[C@H](CCC(=O)O)NC(=O)c2cc(N3CCC(CCOC)CC3)nc(-c3ccccc3)n2)CC1 [(S)-5-(4-(butoxycarbonyl)piperazin-1-yl)-4-(6-(4-(2-methoxyethyl)piperidin-1-yl)-2-phenylpyrimidine-4-carboxamido)-5-oxopentanoic acid] | 1200 |
| CCCCOC(=O)N1CCN(C(=O)[C@H](CCC(=O)O)NC(=O)c2cc(N3CCC(C(=O)N(CC)CC)CC3)nc(-c3ccccc3)n2)CC1 [(S)-5-(4-(butoxycarbonyl)piperazin-1-yl)-4-(6-(4-(diethylcarbamoyl)piperidin-1-yl)-2-phenylpyrimidine-4-carboxamido)-5-oxopentanoic acid] | 280 |
| CCCCOC(=O)N1CCN(C(=O)[C@H](CCC(=O)O)NC(=O)c2cc(N3CCC(C(=O)N(C)C)CC3)nc(-c3ccccc3)n2)CC1 [(S)-5-(4-(butoxycarbonyl)piperazin-1-yl)-4-(6-(4-(dimethylcarbamoyl)piperidin-1-yl)-2-phenylpyrimidine-4-carboxamido)-5-oxopentanoic acid] | 1500 |
| CCCCOC(=O)N1CCN(C(=O)[C@H](CCC(=O)O)NC(=O)c2cc(N3CCC(OC)CC3)nc(-c3ccccc3)n2)CC1 [(S)-5-(4-(butoxycarbonyl)piperazin-1-yl)-4-(6-(4-methoxypiperidin-1-yl)-2-phenylpyrimidine-4-carboxamido)-5-oxopentanoic acid] | 1800 |
| CCCCOC(=O)N1CCN(C(=O)[C@H](CCC(=O)O)NC(=O)c2cc(N3CCC(N4CCOCC4)CC3)nc(-c3ccccc3)n2)CC1 [(S)-5-(4-(butoxycarbonyl)piperazin-1-yl)-4-(6-(4-morpholinopiperidin-1-yl)-2-phenylpyrimidine-4-carboxamido)-5-oxopentanoic acid] | 880 |
| CCCCOC(=O)N1CCN(C(=O)[C@H](CCC(=O)O)NC(=O)c2cc(OCC3CCN(C)CC3)nc(-c3ccccc3)n2)CC1 [(S)-5-(4-(butoxycarbonyl)piperazin-1-yl)-4-(6-((1-methylpiperidin-4-yl)methoxy)-2-phenylpyrimidine-4-carboxamido)-5-oxopentanoic acid] | 3000 |
| CCCCOC(=O)N1CCN(C(=O)[C@H](CCC(=O)O)NC(=O)c2cc(N3CCC(N4CCCC4)CC3)nc(-c3ccccc3)n2)CC1 [(S)-5-(4-(butoxycarbonyl)piperazin-1-yl)-5-oxo-4-(2-phenyl-6-(4-(pyrrolidin-1-yl)piperidin-1-yl)pyrimidine-4-carboxamido)pentanoic acid] | 660 |
| CCCCOC(=O)N1CCN(C(=O)[C@H](CCC(=O)O)NC(=O)c2cc(N3CCC(C(=O)N4CCCC4)CC3)nc(-c3ccccc3)n2)CC1 [(S)-5-(4-(butoxycarbonyl)piperazin-1-yl)-5-oxo-4-(2-phenyl-6-(4-(pyrrolidine-1-carbonyl)piperidin-1-yl)pyrimidine-4-carboxamido)pentanoic acid] | 390 |
| CCCCOC(=O)N1CCN(C(=O)[C@H](CCC(=O)O)NC(=O)c2cc(OCC3CCNCC3)nc(-c3ccccc3)n2)CC1 [(S)-5-(4-(butoxycarbonyl)piperazin-1-yl)-5-oxo-4-(2-phenyl-6-(piperidin-4-ylmethoxy)pyrimidine-4-carboxamido)pentanoic acid] | 1200 |
| CCCCOC(=O)N1CCN(C(=O)[C@H](CCC(=O)O)NC(=O)c2cc(OC3CCNCC3)nc(-c3ccccc3)n2)CC1 [(S)-5-(4-(butoxycarbonyl)piperazin-1-yl)-5-oxo-4-(2-phenyl-6-(piperidin-4-yloxy)pyrimidine-4-carboxamido)pentanoic acid] | 1300 |

Next, values leading:

| IC50 [nM] | Compound |
| --- | --- |
| 1100 | CCCCCOC(=O)N1CCN(C(=O)[C@H](CCC(=O)O)NC(=O)c2cc(N3CCN(CC(=O)N4CCCC4)CC3)nc(-c3ccccc3)n2)CC1 [(S)-5-oxo-4-(6-(4-(2-oxo-2-(pyrrolidin-1-yl)ethyl)piperazin-1-yl)-2-phenylpyrimidine-4-carboxamido)-5-(4-(pentyloxycarbonyl)piperazin-1-yl)pentanoic acid] |
| 1500 | CCCCCOC(=O)N1CCN(C(=O)[C@H](CCC(=O)O)NC(=O)c2cc(N3CCC(CC(=O)N4CCCC4)CC3)nc(-c3ccccc3)n2)CC1 [(S)-5-oxo-4-(6-(4-(2-oxo-2-(pyrrolidin-1-yl)ethyl)piperidin-1-yl)-2-phenylpyrimidine-4-carboxamido)-5-(4-(pentyloxycarbonyl)piperazin-1-yl)pentanoic acid] |
| 1600 | CCCCCOC(=O)N1CCN(C(=O)[C@H](CCC(=O)O)NC(=O)c2cc(N3CCC(CN4CCCC4=O)CC3)nc(-c3ccccc3)n2)CC1 [(S)-5-oxo-4-(6-(4-((2-oxopyrrolidin-1-yl)methyl)piperidin-1-yl)-2-phenylpyrimidine-4-carboxamido)-5-(4-(pentyloxycarbonyl)piperazin-1-yl)pentanoic acid] |
| > 10000 | CCCCCOC(=O)N1CCN(C(=O)[C@H](CCC(=O)O)NC(=O)c2cc(SCC(F)(F)F)nc(-c3ccccc3)n2)CC1 [(S)-5-oxo-5-(4-(pentyloxycarbonyl)piperazin-1-yl)-4-(2-phenyl-6-(2,2,2-trifluoroethylthio)pyrimidine-4-carboxamido)pentanoic acid] |
| 810 | CCCCCOC(=O)N1CCN(C(=O)[C@H](CCC(=O)O)NC(=O)c2cc(N3CCC(CCN4CCCC4)CC3)nc(-c3ccccc3)n2)CC1 [(S)-5-oxo-5-(4-(pentyloxycarbonyl)piperazin-1-yl)-4-(2-phenyl-6-(4-(2-(pyrrolidin-1-yl)ethyl)piperidin-1-yl)pyrimidine-4-carboxamido)pentanoic acid] |
| 510 | CCCCCOC(=O)N1CCN(C(=O)[C@H](CCC(=O)O)NC(=O)c2cc(N3CCC(N4CCCC4)CC3)nc(-c3ccccc3)n2)CC1 [(S)-5-oxo-5-(4-(pentyloxycarbonyl)piperazin-1-yl)-4-(2-phenyl-6-(4-(pyrrolidin-1-yl)piperidin-1-yl)pyrimidine-4-carboxamido)pentanoic acid] |
| 560 | CCCCCOC(=O)N1CCN(C(=O)[C@H](CCC(=O)O)NC(=O)c2cc(N3CCC(CN4CCCC4)CC3)nc(-c3ccccc3)n2)CC1 [(S)-5-oxo-5-(4-(pentyloxycarbonyl)piperazin-1-yl)-4-(2-phenyl-6-(4-(pyrrolidin-1-ylmethyl)piperidin-1-yl)pyrimidine-4-carboxamido)pentanoic acid] |
| 270 | CCCCCOC(=O)N1CCN(C(=O)[C@H](CCC(=O)O)NC(=O)c2cc(N3CCC(C(=O)N4CCCC4)CC3)nc(-c3ccccc3)n2)CC1 [(S)-5-oxo-5-(4-(pentyloxycarbonyl)piperazin-1-yl)-4-(2-phenyl-6-(4-(pyrrolidine-1-carbonyl)piperidin-1-yl)pyrimidine-4-carboxamido)pentanoic acid] |
| 1300 | CCCCCOC(=O)N1CCN(C(=O)[C@H](CCC(=O)O)NC(=O)c2cc(N3CCNCC3)nc(-c3ccccc3)n2)CC1 [(S)-5-oxo-5-(4-(pentyloxycarbonyl)piperazin-1-yl)-4-(2-phenyl-6-(piperazin-1-yl)pyrimidine-4-carboxamido)pentanoic acid] |
| 1700 | CCCCCOC(=O)N1CCN(C(=O)[C@H](CCC(=O)O)NC(=O)c2cc(OCC3CCNCC3)nc(-c3ccccc3)n2)CC1 [(S)-5-oxo-5-(4-(pentyloxycarbonyl)piperazin-1-yl)-4-(2-phenyl-6-(piperidin-4-ylmethoxy)pyrimidine-4-carboxamido)pentanoic acid] |
| 1700 | CCCCCOC(=O)N1CCN(C(=O)[C@H](CCC(=O)O)NC(=O)c2nc(-c3ccccc3)cc(N3CCC(CCN4CCCC4)CC3)n2)CC1 [(S)-5-oxo-5-(4-(pentyloxycarbonyl)piperazin-1-yl)-4-(4-phenyl-6-(4-(2-(pyrrolidin-1-yl)ethyl)piperidin-1-yl)pyrimidine-2-carboxamido)pentanoic acid] |
| 2100 | CCCCCOC(=O)N1CCN(C(=O)[C@H](CCC(=O)O)NC(=O)c2nc(-c3ccccc3)cc(N3CCC(N4CCCC4)CC3)n2)CC1 [(S)-5-oxo-5-(4-(pentyloxycarbonyl)piperazin-1-yl)-4-(4-phenyl-6-(4-(pyrrolidin-1-yl)piperidin-1-yl)pyrimidine-2-carboxamido)pentanoic acid] |
| 5200 | CCCCCOC(=O)N1CCN(C(=O)[C@H](CCC(=O)O)NC(=O)c2nc(-c3ccccc3)cc(N3CCNCC3)n2)CC1 [(S)-5-oxo-5-(4-(pentyloxycarbonyl)piperazin-1-yl)-4-(4-phenyl-6-(piperazin-1-yl)pyrimidine-2-carboxamido)pentanoic acid] |
| 9400 | CCCCCOC(=O)N1CCN(C(=O)[C@H](CCC(=O)O)NC(=O)c2nc(OCC3CCNCC3)cc(-c3ccccc3)n2)CC1 [(S)-5-oxo-5-(4-(pentyloxycarbonyl)piperazin-1-yl)-4-(4-phenyl-6-(piperidin-4-ylmethoxy)pyrimidine-2-carboxamido)pentanoic acid] |
